Tests used:
α-Chymotrypsin [1] = biological target: T1, α-Chymotrypsin (Bos taurus, UniProt P00766); test: α-Chymotrypsin inhibition kinetic study (Lineweaver-Burk, Dixon, Hanes-Woolf plots); assay type: biochemical, bovine; conditions: for Type of inhibition: from Lineweaver-Burk, Dixon and Hanes-Woolf plots; for Ki: substrate SPpNA 0.4-3.2 mM, n = 3, read-out: Ki ± SEM
T1 construct: purchased Sigma-Aldrich (USA) C4129; host or cells: bovine pancreas
From the text: (§1) α-Chymotrypsin (bovine pancreas, C4129) and N-succinyl-L-phenylalanine-p-nitroaniline (S2628) were purchased from Sigma-Aldrich (USA). Chymostatin (152845) from MP Biomedicals, LLC, USA, Tris(hydroxymethyl)aminomethane from Scharlau Chemie Barcelona, Spain and all other reagents were obtained from E. Merck and were of analytical grade. All other solvents and reagents were of analytical grade and used directly without purification.
The change in concentration of the substrate/product (rate of reaction) was measured as optical density per minute (OD/min). This OD/min was obtained by incorporating different concentrations of compounds over substrate (SPpNA) concentrations between 0.4 mM and 3.2 mM in micro-plate reader. Reciprocal of OD/min against the reciprocal of the substrate concentration, defined as Lineweaver-Burk plot (and its secondary plot; slope vs compound concentration); the Dixon plot (and its secondary plot; slope vs reciprocal of compound concentration) and then Hanes-Woolf plot were plotted (Lineweaver et al., 1934; Dixon, 1953; Segel, 1993) Graphs were plotted using GraFit 4 (Erithacus Software Limited, Surrey, UK) and GraphPad Prism 5 (GraphPad Software, California, USA). The types of inhibition were determined by the graphical views of Dixon plots, Lineweaver-Burk plots and their secondary plots as well as Hanes-Woolf plot. The Ki values, obtained directly from the software, also were cross-checked and tallied in these graphs. Final concentration of DMSO was maintained 5.5%.

α-Chymotrypsin [2] = biological target: T1, α-Chymotrypsin; test: α-Chymotrypsin inhibition assay (SPpNA substrate, absorbance at 410 nm); assay type: biochemical, bovine; conditions: α-chymotrypsin, substrate SPpNA 0.4 mM, pH 7.6, 30° C., n = 3
Description: as §1
This was performed in 50 mM Tris-HCl buffer pH 7.6 with 10 mM CaCl2. α-Chymotrypsin (12 units/mL prepared in 50 mM Tris-HCl buffer) with the different concentration of test compounds prepared in DMSO. It was then incubated at 30° C. for 25 min. The reaction was started by the addition of the substrate, N-succinyl-L-phenylalanine-p-nitroanilide (final concentration of 0.4 mM, prepared in the buffer as mentioned above). The change in absorbance due to released p-nitroaniline was continuously monitored at 410 nm (Choudhary et al., 2011). All the experiments were in a final volume of 200 μL in triplicate, and data was taken using a micro-plate reader (SpectraMax M2, Molecular Devices, Calif., USA).
The results were processed by using SoftMax Pro 4.8 then analyzed by MS Excel software. The % of inhibition based upon initial velocity and calculated as: […]
IC50 (Inhibition of enzymatic hydrolysis of the substrate SPpNA by 50%) value was calculated using EZ-Fit software (Perellela Scientific, Inc., Amherst, Mars, USA).

3T3 cell line = test: Cell proliferation inhibition (cytotoxicity) MTT assay for 3T3 cell line; assay type: cell-based, Mouse
Description: (§2) It was evaluated by using the MTT (3-[4,5-dimethylthiazole-2-yl]-2,5-diphenyl-tetrazolium bromide) assay (Mosmann, 1983). The 3T3 cell-lines (Mouse Fibroblasts) were cultured in Dulbecco's Modified Eagle's Medium, which was later supplemented with 5% of bovine serum, 100 IU/mL of penicillin, and 100 μg/mL of streptomycin, in 5% CO2 incubator at 37° C. Exponentially growing cell, 1×10^4 cells/well incorporated into each well of 96-well plates. Then, fresh the medium containing different concentrations of compounds were loaded in each well after 24 hours. Again, after 72 hrs, fresh the medium containing 0.5 mg/mL MTT were loaded in each well, and incubated further for 4 hrs. Subsequently, the media containing MTT was replaced by 100 μL of DMSO for 15 min, and then the absorbance was taken at 570 nm.

[3] = as above; assay type: cell-based, Mouse; conditions: 3T3 mouse fibroblast cells; 3T3 mouse fibroblasts, MTT, 72 hrs, n = 3; read-out: 3T3 cell-line GI50 ± SEM
Description: as §2

| SMILES | Type of inhibition (α-Chymotrypsin [1]) | Ki (α-Chymotrypsin [1]) [µM] | IC50 (α-Chymotrypsin [2]) [µM] | growth inhibition for 3T3 cell lines (in words) (3T3 cell line) | GI50 at 72 h [3] [µM] |
| --- | --- | --- | --- | --- | --- |
| COc1ccccc1NC(=S)Nc1cccc(Cl)c1 [Compound 5, 1-(3-Chlorophenyl)-3-(2-methoxyphenyl) thiourea] | Non- Competitive | 25.3 ± 4.6 | 26.3 ± 4.9 | showed growth inhibition | 10.7 ± 1.2 |
| Cc1ccc(NC(=S)Nc2cccc(Cl)c2)cc1 [Compound 9, 1-(3-Chlorophenyl)-3-p-tolylthiourea] | Non- Competitive | 39.6 ± 1 | 46.2 ± 0.5 | showed growth inhibition | 2.3 ± 0.4 |

Source: patent US20150080580A1, “THIOUREA DERIVATIVES AS a-CHYMOTRYPSIN INHIBITORS” (priority 2013, published 2015)
